US20050014847A1, “Ambroxol for the treatment of chronic nociceptive pain” (Boehringer Ingelheim International GmbH, priority 2003, published 2005)

What was measured:
[1] = system: Tetrodotoxin-sensitive currents (sodium channels); format: cell-based, rat; settings: read-out: IC50 tetrodotoxin-sensitive currents; neuron cultures from posterior root ganglia of adult rats
[2] = biological target: T1, human GluR1/2 receptors (Homo sapiens, UniProt P42261+P42262); assay: Patch-Clamp inhibition of glutamate-induced membrane currents in HEK 293 cells; format: cell-based; settings: HEK 293 cells expressing recombinant human GluR1/2, 1 mM glutamate for 1 s, holding potential −80 mV
T1 construct: expressed in transfected cells; host or cells: HEK 293
T1 sequence (P42261 19-906): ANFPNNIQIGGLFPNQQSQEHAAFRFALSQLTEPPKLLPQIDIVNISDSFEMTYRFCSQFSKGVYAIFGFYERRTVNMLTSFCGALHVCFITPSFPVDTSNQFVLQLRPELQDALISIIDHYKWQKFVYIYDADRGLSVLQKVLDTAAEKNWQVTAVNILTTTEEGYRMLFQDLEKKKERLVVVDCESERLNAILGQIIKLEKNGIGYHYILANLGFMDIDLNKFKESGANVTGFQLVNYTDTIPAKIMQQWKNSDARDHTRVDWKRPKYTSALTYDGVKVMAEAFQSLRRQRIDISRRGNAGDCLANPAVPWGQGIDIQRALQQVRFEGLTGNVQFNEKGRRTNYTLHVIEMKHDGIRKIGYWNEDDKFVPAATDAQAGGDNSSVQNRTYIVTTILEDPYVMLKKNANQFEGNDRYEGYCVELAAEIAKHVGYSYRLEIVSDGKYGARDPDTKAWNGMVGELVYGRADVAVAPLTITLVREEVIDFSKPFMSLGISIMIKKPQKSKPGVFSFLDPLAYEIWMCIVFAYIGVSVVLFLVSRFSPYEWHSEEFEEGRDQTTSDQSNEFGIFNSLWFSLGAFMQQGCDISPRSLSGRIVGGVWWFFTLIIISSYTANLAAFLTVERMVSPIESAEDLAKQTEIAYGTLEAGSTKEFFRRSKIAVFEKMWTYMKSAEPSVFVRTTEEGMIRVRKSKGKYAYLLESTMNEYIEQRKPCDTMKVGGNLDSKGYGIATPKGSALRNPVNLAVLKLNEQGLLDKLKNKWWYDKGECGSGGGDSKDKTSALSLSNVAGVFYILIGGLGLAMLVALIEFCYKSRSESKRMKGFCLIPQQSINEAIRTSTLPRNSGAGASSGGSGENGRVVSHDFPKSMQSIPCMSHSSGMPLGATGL
T1 sequence (P42262 22-883 limits assumed): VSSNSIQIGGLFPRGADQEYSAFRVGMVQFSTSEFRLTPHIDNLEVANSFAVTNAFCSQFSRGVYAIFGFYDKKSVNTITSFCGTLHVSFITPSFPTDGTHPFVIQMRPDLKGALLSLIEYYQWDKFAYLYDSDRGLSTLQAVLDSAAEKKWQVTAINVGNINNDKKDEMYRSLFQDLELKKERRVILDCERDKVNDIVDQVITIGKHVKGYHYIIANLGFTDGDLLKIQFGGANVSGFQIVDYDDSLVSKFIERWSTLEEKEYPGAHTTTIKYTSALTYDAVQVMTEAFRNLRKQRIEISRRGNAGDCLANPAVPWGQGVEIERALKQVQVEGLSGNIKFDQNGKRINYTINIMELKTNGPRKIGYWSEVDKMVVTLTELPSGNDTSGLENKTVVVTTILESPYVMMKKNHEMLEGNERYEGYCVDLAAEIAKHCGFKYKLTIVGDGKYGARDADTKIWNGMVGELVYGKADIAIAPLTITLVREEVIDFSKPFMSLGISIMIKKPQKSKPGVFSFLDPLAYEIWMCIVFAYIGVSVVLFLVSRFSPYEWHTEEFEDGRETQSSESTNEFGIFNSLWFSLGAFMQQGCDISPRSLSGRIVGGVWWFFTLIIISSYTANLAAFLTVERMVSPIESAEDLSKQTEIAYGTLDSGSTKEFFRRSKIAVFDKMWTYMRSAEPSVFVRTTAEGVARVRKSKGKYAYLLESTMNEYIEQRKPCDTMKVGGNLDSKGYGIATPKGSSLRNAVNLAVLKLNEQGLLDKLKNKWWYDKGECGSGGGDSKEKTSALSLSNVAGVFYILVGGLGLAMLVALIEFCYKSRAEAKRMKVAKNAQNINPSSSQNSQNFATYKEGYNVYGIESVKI
Method: Ionotropic glutamate receptors of the AMPA sub-type are also essential for the excitatory neurotransmission. […] HEK 293 cells which expressed functionally recombinant human GluR1/2 receptors were electrophysiologically investigated by the Patch-Clamp method ([…]). The administration of 1 mM glutamate (for 1 s at a holding potential of −80 mV) induced membrane currents which were inhibited by the joint administration of ambroxol.

Question: Which results are given for `Nc1c(Br)cc(Br)cc1CN[C@H]1CC[C@H](O)CC1` [ambroxol, trans-4-(2-amino-3,5-dibromobenzylamino)cyclohexanol]?
Answer: IC50 [1]: > 100 µM; concentrations inhibiting glutamate-induced membrane currents [2]: 30 to 1000 µM
